Measurements published in patent US9695330B2, “Liquid composition, pigment dispersion liquid, and aqueous ink composition for ink jet recording” (Seiko Epson Corporation, priority 2015, dated 2017).

assay: Distribution coefficient of water-octanol (logP), OECD Test Guideline 107; assay type: physicochemical; conditions: not given

| logP | Structure (SMILES) | logP (distribution coefficient of water-octanol) |
| --- | --- | --- |
| – | CCCCCC(=O)OCC(O)CO (stereo not shown) [hexanoic acid 2,3-dihydroxypropyl] | 0.85 |
| 2.53 | CCCCC(CC)COCC(O)CO (stereo not shown) [3-(2-ethylhexyloxy)-1,2-propanediol] | – |
| – | CCCC(=O)OCC(O)CO (stereo not shown) [butyric acid 2,3-dihydroxypropyl] | -0.21 |
| – | C=C(C)C(=O)OCC(O)CO (stereo not shown) [methacrylic acid 2,3-dihydroxypropyl] | −0.12 |
| – | CCC(=O)OCC(O)CO (stereo not shown) [propionic acid 2,3-dihydroxypropyl] | −0.75 |

same assay, conditions: octanol/water

| logP | Structure (SMILES) |
| --- | --- |
| 0.36 | CCCCCCOCC(O)CO (stereo not shown) [3-hexyloxy-1,2-propanediol] |
| 0.94 | CC(C)CCOCC(O)CO (stereo not shown) [3-isopentyloxy-1,2-propanediol] |
| 1 | OCC(O)COC1CCCCC1 (stereo not shown) [3-cyclohexyloxy-1,2-propanediol] |
| -0.24 | CC(=O)OCC(COC(C)=O)OC(C)=O [glycerol triacetate] |
| 0.75 | C#CCOCC(O)CO (stereo not shown) [3-(2-propynyloxy)-1,2-propanediol] |
| 2.6 | CC1CCC(C(C)C)C(OCC(O)CO)C1 (stereo not shown) [3-menthyloxy-1,2-propanediol] |
| -0.46 | C=CCOCC(O)CO (stereo not shown) [3-allyloxy-1,2-propanediol] |
| 0.9 | CCCCCOCC(O)CO (stereo not shown) [3-pentyloxy-1,2-propanediol] |
| -0.43 | CCOCC(O)CO (stereo not shown) [3-ethoxy-1,2-propanediol] |
| -0.62 | COCC(O)CO (stereo not shown) [3-methoxy-1,2-propanediol] |

| Structure (SMILES) | logP |
| --- | --- |
| CCCCOCC(O)CO (stereo not shown) [3-butoxy-1,2-propanediol] | 0.59 |
